Data: ChEMBL document CHEMBL1150977, “A quantitative analysis of kinase inhibitor selectivity” (Nat Biotechnol, 2008)

What was measured:
[1] = biological target: T1, Myosin-IIIb (Homo sapiens, UniProt Q8WXR4)
T1 sequence (Q8WXR4 whole entry): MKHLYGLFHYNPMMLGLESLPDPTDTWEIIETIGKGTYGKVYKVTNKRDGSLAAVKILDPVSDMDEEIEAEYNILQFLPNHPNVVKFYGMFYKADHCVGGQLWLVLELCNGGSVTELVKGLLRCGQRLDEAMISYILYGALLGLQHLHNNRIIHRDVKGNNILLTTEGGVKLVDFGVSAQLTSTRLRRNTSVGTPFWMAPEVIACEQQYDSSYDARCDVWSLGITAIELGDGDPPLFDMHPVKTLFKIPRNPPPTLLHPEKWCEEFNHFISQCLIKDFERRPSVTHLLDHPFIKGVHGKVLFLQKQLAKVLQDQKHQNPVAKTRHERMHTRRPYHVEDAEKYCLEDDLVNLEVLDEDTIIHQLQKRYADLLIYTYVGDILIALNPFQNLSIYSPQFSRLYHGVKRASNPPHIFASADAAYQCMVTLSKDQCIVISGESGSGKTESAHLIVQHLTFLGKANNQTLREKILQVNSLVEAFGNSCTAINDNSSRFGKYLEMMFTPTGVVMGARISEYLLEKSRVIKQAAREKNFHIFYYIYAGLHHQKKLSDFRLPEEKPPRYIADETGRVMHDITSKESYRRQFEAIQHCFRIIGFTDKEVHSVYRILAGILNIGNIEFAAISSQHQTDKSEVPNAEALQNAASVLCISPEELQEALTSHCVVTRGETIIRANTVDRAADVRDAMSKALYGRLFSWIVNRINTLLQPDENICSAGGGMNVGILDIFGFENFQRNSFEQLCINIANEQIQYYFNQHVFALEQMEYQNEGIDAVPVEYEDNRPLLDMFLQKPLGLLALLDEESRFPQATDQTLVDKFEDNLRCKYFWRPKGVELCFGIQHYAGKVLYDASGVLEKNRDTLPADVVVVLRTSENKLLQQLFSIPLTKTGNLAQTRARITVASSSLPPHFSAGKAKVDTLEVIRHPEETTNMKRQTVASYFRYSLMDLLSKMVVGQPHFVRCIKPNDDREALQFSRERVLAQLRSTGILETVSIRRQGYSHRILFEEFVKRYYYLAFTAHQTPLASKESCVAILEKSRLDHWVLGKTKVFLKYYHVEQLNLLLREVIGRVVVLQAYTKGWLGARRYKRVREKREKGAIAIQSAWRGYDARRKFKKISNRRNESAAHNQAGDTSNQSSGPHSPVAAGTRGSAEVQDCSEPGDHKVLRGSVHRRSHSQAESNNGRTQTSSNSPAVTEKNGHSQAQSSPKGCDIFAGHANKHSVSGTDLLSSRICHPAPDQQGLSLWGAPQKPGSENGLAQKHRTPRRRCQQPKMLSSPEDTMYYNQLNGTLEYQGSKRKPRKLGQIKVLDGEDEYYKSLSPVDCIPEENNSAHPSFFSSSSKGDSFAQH

[2] = biological target: T2, Cyclin-dependent kinase 11A (Homo sapiens, UniProt Q9UQ88)
T2 sequence (Q9UQ88 whole entry): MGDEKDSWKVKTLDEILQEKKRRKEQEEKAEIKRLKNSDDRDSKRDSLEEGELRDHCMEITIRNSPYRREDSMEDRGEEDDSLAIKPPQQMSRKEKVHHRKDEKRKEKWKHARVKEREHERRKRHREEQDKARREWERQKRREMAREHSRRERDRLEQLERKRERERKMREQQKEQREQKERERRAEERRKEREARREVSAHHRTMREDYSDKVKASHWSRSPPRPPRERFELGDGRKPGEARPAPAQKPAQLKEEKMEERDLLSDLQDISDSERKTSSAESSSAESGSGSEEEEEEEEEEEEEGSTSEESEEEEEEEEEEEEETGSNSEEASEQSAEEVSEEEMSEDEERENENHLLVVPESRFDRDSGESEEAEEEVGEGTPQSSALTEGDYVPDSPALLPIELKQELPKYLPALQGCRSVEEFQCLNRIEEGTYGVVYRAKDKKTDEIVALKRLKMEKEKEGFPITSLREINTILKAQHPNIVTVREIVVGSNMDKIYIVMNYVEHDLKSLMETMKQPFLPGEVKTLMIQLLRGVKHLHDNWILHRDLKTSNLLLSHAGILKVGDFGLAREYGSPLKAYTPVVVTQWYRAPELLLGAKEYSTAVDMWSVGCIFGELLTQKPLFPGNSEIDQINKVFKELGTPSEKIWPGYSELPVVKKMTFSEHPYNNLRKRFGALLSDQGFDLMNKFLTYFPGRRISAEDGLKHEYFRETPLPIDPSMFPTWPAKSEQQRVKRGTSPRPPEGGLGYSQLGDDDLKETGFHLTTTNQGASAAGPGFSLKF

[3] = biological target: Casein kinase I isoform epsilon (Homo sapiens, UniProt P49674)
Casein kinase I isoform epsilon, sequence (P49674 whole entry, the tested form may be a part, canonical isoform): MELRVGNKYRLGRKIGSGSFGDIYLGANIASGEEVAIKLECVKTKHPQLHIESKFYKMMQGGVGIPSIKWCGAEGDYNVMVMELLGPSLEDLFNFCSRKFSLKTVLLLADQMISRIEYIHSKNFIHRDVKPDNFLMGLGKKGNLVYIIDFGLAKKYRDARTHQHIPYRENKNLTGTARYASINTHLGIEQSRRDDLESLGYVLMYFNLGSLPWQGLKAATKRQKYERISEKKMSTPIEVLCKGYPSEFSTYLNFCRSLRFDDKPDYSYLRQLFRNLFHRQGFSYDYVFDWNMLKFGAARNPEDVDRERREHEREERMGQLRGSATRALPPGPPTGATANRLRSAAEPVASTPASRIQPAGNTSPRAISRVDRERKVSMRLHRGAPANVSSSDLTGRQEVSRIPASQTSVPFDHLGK

[4] = biological target: T3, Discoidin domain-containing receptor 2 (Homo sapiens, UniProt Q16832)
T3 sequence (Q16832 whole entry): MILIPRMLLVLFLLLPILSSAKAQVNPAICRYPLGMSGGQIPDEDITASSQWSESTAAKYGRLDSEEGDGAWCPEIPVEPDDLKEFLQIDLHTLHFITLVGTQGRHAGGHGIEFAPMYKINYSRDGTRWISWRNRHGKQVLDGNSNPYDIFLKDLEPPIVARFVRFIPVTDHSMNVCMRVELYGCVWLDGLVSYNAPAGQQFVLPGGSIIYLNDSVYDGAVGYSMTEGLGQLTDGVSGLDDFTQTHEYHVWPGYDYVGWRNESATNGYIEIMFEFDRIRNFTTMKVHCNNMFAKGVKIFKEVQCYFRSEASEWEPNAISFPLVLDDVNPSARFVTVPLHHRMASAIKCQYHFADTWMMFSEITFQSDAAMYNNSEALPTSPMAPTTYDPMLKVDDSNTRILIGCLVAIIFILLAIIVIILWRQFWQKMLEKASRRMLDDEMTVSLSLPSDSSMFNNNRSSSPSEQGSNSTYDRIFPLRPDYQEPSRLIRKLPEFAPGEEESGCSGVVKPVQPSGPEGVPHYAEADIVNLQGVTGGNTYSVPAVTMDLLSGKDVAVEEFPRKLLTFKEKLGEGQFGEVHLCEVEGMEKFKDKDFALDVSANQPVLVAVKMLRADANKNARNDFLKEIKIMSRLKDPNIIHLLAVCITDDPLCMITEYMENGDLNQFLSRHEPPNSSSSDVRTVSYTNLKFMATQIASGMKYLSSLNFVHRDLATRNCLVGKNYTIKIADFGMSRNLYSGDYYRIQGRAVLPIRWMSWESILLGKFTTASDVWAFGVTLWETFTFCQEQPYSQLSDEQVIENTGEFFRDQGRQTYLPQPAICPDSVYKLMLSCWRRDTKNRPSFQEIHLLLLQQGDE

Row | Structure (SMILES) | Kd [1] [µM] | Kd [2] [µM] | Kd [3] [nM] | Kd [4] [µM]
1 | COCC(=O)NC/C=C/c1ccc2ncnc(Nc3ccc(Oc4ccc(C)nc4)c(C)c3)c2c1 [CP-724714] | > 10 | > 10 | > 10000 | > 10
2 | CCOc1cc2ncc(C#N)c(Nc3ccc(F)c(Cl)c3)c2cc1NC(=O)/C=C/CN(C)C [PELITINIB] | > 10 | > 10 | 100 | > 10
3 | NC(=O)c1ccc(-c2nc(-c3ccc4c(c3)OCO4)c(-c3ccccn3)[nH]2)cc1 [SB-431542] | > 10 | > 10 | – | > 10
4 | Nc1nc(Nc2ccc(S(N)(=O)=O)cc2)nn1C(=O)c1c(F)cccc1F [JNJ-7706621] | > 10 | – | 3600 | > 10
5 | Oc1ccc(-c2nc(-c3ccncc3)c(-c3ccc(F)cc3)[nH]2)cc1 [SB-202190] | > 10 | > 10 | 170 | 1.6
